Measurements as given in patent publication EP1074545A1, “ISOQUINOLINESULFONAMIDE DERIVATIVES AND DRUGS CONTAINING THE SAME AS THE ACTIVE INGREDIENT” (Hidaka, Hiroyoshi, priority 1998, dated 1999).
Counter-ions that a name gives are not always drawn.

Tested on: HIV-infected cells
Experiment: p24 protein production inhibiting effect (in vitro), quantitation of p24 protein by ELISA
Type: cell-based
Conditions: for content of p24 protein, Day 0: control 0; for content of p24 protein, Day 1: control 569542; for content of p24 protein, Day 5: control 902226
Method: p24 Protein Production Inhibiting Effect (in vitro)
Quantitation of p24 protein was conducted by ELISA.
HIV-infected cells were lysed in a lysis buffer, and were poured in predetermined constant aliquots into the individual wells of a 96-well microplate. Subsequent to adsorption of an antigen, a solution of a biotinylated anti-p24 monoclonal antibody was added. A streptavidin-labeled peroxidase was added, followed by the addition of a substrate for staining. One, three and five days later or 2 and 4 days later, a terminating solution was added to terminate the reaction. Concerning each of the wells, the absorbance at 450 nm was measured to determine the content of p24 protein in the well.

[1] = Table 5, compound at 1.60 µg/mℓ, control 349386
[2] = Table 5, compound at 1.60 µg/mℓ, control 435119

SMILES: Cc1cnc(OC(C)C)c2cccc(S(=O)(=O)N3CCCNCC3)c12 [Example 22, 1-(1-Isopropyloxy-4-methyl-5-isoquinolinesulfonyl)hexahydro-1H-1,4-diazepine]
- content of p24 protein, Day 4 (Table 4, compound at 1.60 µg/mℓ, control 38991): 20897 pg/mL
- content of p24 protein, Day 2 (Table 4, compound at 1.60 µg/mℓ, control 58304.5): 17405 pg/mL

SMILES: O=S(=O)(c1cccc2cncc(F)c12)N1CCCNCC1 [Example 55, 1-(4-Fluoro-5-isoquinolinesulfonyl)hexahydro-1H-1,4-diazepine]
- content of p24 protein, Day 4 (Table 3, compound at 4 µg/mℓ, control 82079): 59487 pg/mL
- content of p24 protein, Day 2 (Table 3, compound at 4 µg/mℓ, control 104484): 59487 pg/mL

SMILES: CCCCCCOc1nccc2c(S(=O)(=O)N3CCCNCC3)cccc12 [Example 28, 1-(1-Hexyloxy-5-isoquinolinesulfonyl)hexahydro-1H-1,4-diazepine]
- content of p24 protein, Day 4 [1]: 69877 pg/mL
- content of p24 protein, Day 2 [2]: 156250 pg/mL

SMILES: CCCCCCCCCCCCCCCCCCOc1ncc(C)c2c(S(=O)(=O)N3CCCNCC3)cccc12 [Example 21, 1-(4-Methyl-1-n-octadecyloxy-5-isoquinolinesulfonyl)hexahydro-1H-1,4-diazepine]
- content of p24 protein, Day 4 (Table 4, compound at 0.16 µg/mℓ, control 38991): 31250 pg/mL
- content of p24 protein, Day 2 (Table 4, compound at 0.16 µg/mℓ, control 58304.5): 31250 pg/mL

SMILES: Cc1cncc2cccc(S(=O)(=O)N3CCNCC3)c12 [Example 29, 1-(4-Methyl-5-isoquinolinesulfonyl)piperazine]
- content of p24 protein, Day 0 (Table 2, compound at 0.32 µg/mℓ): 0 pg/m
- content of p24 protein, Day 2 (Table 2, compound at 0.32 µg/mℓ, control 46732): 69877 pg/m
- content of p24 protein, Day 4 (Table 2, compound at 0.32 µg/mℓ, control 104484): 69877 pg/m

SMILES: Cc1cnc(O)c2cccc(S(=O)(=O)N3CCCNC(C)C3)c12 (stereo not shown) [Example 36, 1-(1-Hydroxy-4-methyl-5-isoquinolinesulfonyl)-3-methylhexahydro-1H-1,4-diazepine·monohydrochloride]
- content of p24 protein, Day 4 (Table 5, compound at 3.20 µg/mℓ, control 349386): 82082 pg/mL
- content of p24 protein, Day 2 (Table 5, compound at 3.20 µg/mℓ, control 435119): 104484 pg/mL

SMILES: CCCCC(CC)COc1ncc(C)c2c(S(=O)(=O)N3CCCNCC3)cccc12 (stereo not shown) [Example 25, 1-(1-(2-Ethyl)hexyloxy-4-methyl-5-isoquinolinesulfonyl)hexahydro-1H-1,4-diazepine]
- content of p24 protein, Day 4 (Table 4, compound at 4.00 µg/mℓ, control 38991): 16416 pg/mL
- content of p24 protein, Day 2 (Table 4, compound at 4.00 µg/mℓ, control 58304.5): 25557 pg/mL

SMILES: Cc1cnc(OCc2c(F)c(F)c(F)c(F)c2F)c2cccc(S(=O)(=O)N3CCCNCC3)c12 [Example 48, 1-(4-Methyl-1-pentafluorophenylmethyloxy-5-isoquinolinesulfonyl)hexahydro-1H-1,4-diazepine]
- content of p24 protein, Day 4 [1]: 297434 pg/mL
- content of p24 protein, Day 2 [2]: 82082 pg/mL

SMILES: CNc1ncc(C)c2c(S(=O)(=O)N3CCCNCC3)cccc12 [Example 41, 1-(4-Methyl-1-N-methylamino-5-isoquinolinesulfonyl)hexahydro-1H-1,4-diazepine]
- content of p24 protein, Day 0 (Table 2, compound at 0.8 µg/mℓ): 0 pg/m
- content of p24 protein, Day 2 (Table 2, compound at 0.8 µg/mℓ, control 46732): 82082 pg/m
- content of p24 protein, Day 4 (Table 2, compound at 0.8 µg/mℓ, control 104484): 66977 pg/m

SMILES: CCCCCCOc1ncc(C)c2c(S(=O)(=O)N3CCCNCC3)cccc12 [Example 14, 1-(1-n-Hexyloxy-4-methyl-5-isoquinolinesulfonyl)hexahydro-1H-1,4-diazepine]
- content of p24 protein, Day 0 (Table 2, compound at 8 µg/mℓ): 0 pg/m
- content of p24 protein, Day 2 (Table 2, compound at 8 µg/mℓ, control 46732): 1022 pg/m
- content of p24 protein, Day 4 (Table 2, compound at 8 µg/mℓ, control 104484): 0 pg/m

SMILES: C=CCOc1ncc(C)c2c(S(=O)(=O)N3CCCNCC3)cccc12 [Example 46, 1-(1-Allyloxy-4-methyl-5-isoquinolinesulfonyl)hexahydro-1H-1,4-diazepine]
- content of p24 protein, Day 4 (Table 5, compound at 8.00 µg/mℓ, control 349386): 156250 pg/mL
- content of p24 protein, Day 2 (Table 5, compound at 8.00 µg/mℓ, control 435119): 233662 pg/mL

SMILES: Cc1cnc(O)c2cccc(S(=O)(=O)N3CCCNCC3C)c12 (stereo not shown) [Example 51, 1-(1-Hydroxy-4-methyl-5-isoquinolinesulfonyl)2-methylhexahydro-1H-1,4-diazepine·monohydrochloride]
- content of p24 protein, Day 1 (Table 1, compound at 10 µg/m): 641752 pg/mL
- content of p24 protein, Day 2 (Table 1, compound at 10 µg/m, control 881594): 624989 pg/mL
- content of p24 protein, Day 5 (Table 1, compound at 10 µg/m): 566963 pg/mL

SMILES: O=S(=O)(c1cccc2c(O)nccc12)N1CCCNCC1 [Example 6, 1-(1-Hydroxy-5-isoquinolinesulfonyl)hexahydro-1H-1,4-diazepine·monohydrochloride]
- content of p24 protein, Day 1 (Table 1, compound at 20 µg/m): 551489 pg/mL
- content of p24 protein, Day 2 (Table 1, compound at 20 µg/m, control 881594): 645621 pg/mL
- content of p24 protein, Day 5 (Table 1, compound at 20 µg/m): 698489 pg/mL

SMILES: CCCCCCOc1ncc(C)c2c(S(=O)(=O)N3CCCNCC3C)cccc12 (stereo not shown) [Example 53, 1-(1-n-Hexyloxy-4-methyl-5-isoquinolinesulfonyl)2-methylhexahydro-1H-1,4-diazepine]
- content of p24 protein, Day 4 (Table 5, compound at 40.0 µg/mℓ, control 349386): 233662 pg/mL
- content of p24 protein, Day 2 (Table 5, compound at 40.0 µg/mℓ, control 435119): 94822 pg/mL

SMILES: CCCCCCCCOc1ncc(C)c2c(S(=O)(=O)N3CCCNCC3)cccc12 [Example 20, 1-(4-Methyl-1-n-octyloxy-5-isoquinolinesulfonyl)hexahydro-1H-1,4-diazepine]
- content of p24 protein, Day 4 (Table 4, compound at 0.32 µg/mℓ, control 38991): 31250 pg/mL
- content of p24 protein, Day 2 (Table 4, compound at 0.32 µg/mℓ, control 58304.5): 31250 pg/mL

SMILES: Cc1cncc2c(S(=O)(=O)N3CCCNCC3)cccc12 [Example 66, 1-(4-Methyl-8-isoquinolinesulfonyl)hexahydro-1H-1,4-diazepine]
- content of p24 protein, Day 4 (Table 4, compound at 200 µg/mℓ, control 38991): 20897 pg/mL
- content of p24 protein, Day 2 (Table 4, compound at 200 µg/mℓ, control 58304.5): 25557 pg/mL
